“And” between values parts separate entries of the source, which are not always exact repeats. Equal entries are not always repeated.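 Dose response: 5 concentrations. Exposure: 48 h. Format: 96-well plates. Endpoint: linear interpolation; highest concentration if not reached. TGI marks complete inhibition of growth.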

Among the test systems are XF 498 CNS; DMS 273 small cell lung; KM20L2 colon; RXF-631 renal; LXFL 529 NSCLC.
What all share (assay): inhibition of tumour cell growth, NCI panel, 48 h

On to `CCCn1c(SCC)c2ccccc2c1-c1nc(F)nc(F)n1`, for which the TGI with XF 498 CNS, in the experiment on DMS 273 small cell lung, in the experiment with KM20L2 colon, in the experiment with RXF-631 renal and with LXFL 529 NSCLC was more than 100 µM each time.

As to `CCCC/C=C/C1Cc2ccccc2CN1S(=O)(=O)c1ccc(C)cc1` (centres undefined), the TGI was found to be 78.1 µM in the experiment on XF 498 CNS; 29.6 µM in the experiment on DMS 273 small cell lung; 26.2 µM in the experiment with KM20L2 colon; 20.9 µM in the experiment on RXF-631 renal; 22.1 µM in the experiment with LXFL 529 NSCLC.

As to `CC(C)(C)NN=C1C(C)(C)C(=NNC(C)(C)C)C1(C)C`, the TGI in the experiment on XF 498 CNS, with DMS 273 small cell lung, with KM20L2 colon and with LXFL 529 NSCLC was more than 100 µM each time.

As to `COC(=O)C(CCCC1(c2ccccc2)OCCO1)C(C)=O` (centres undefined), the TGI in the experiment with XF 498 CNS, in the experiment on DMS 273 small cell lung, in the experiment on KM20L2 colon, in the experiment on RXF-631 renal and in the experiment on LXFL 529 NSCLC was more than 100 µM throughout.

For the compound `CCCCc1c2c(nc3c1CCCC3O)/C(=C/c1ccccc1)CCC2` (centres undefined), the TGI in the experiment on XF 498 CNS is 28.2 µM; in the experiment on DMS 273 small cell lung, more than 100 µM; with KM20L2 colon, 75.1 µM; in the experiment on LXFL 529 NSCLC, more than 100 µM.

As to `CC(=O)O/N=C/c1ncccc1OC(C)=O`, the TGI in the experiment on XF 498 CNS, with DMS 273 small cell lung, with KM20L2 colon, in the experiment with RXF-631 renal and in the experiment with LXFL 529 NSCLC was more than 100 µM each time.

In the case of `CCCN(CCCC(NC(C)=O)C(=O)NCc1ccccc1)C(=O)NC` (centres undefined), the TGI in the experiment on DMS 273 small cell lung, with KM20L2 colon, in the experiment on RXF-631 renal and with LXFL 529 NSCLC was more than 100 µM each time.

For the compound `NC(=O)N1N=C2c3ccccc3CC[C@@H]2C1c1ccccc1` (some centres undefined), the TGI in the experiment on DMS 273 small cell lung, in the experiment with KM20L2 colon and with LXFL 529 NSCLC was more than 100 µM each time.

With `COC(=O)C1=C(C(=O)OC)C2(OC(C)=O)c3ccccc3-c3ccccc3C12` (centres undefined), the TGI stood at 26.1 µM in the experiment on XF 498 CNS, 9.61 µM in the experiment with DMS 273 small cell lung, 12.8 µM with KM20L2 colon and 3.38 µM with LXFL 529 NSCLC.

Regarding `O=C1C(CN2CCCCC2)CCCC1CN1CCCCC1` (centres undefined), the TGI in the experiment on XF 498 CNS is 33.4 µM and 39.8 µM; in the experiment with DMS 273 small cell lung, more than 100 µM; with KM20L2 colon it was 17.8 µM and 22.8 µM; in the experiment with LXFL 529 NSCLC, 29.3 µM and 28.9 µM.

For the compound `N#Cc1c(-c2ccco2)cc(-c2ccc(NCc3nc4ccccc4[nH]3)cc2)nc1N`, the TGI in the experiment on DMS 273 small cell lung was 38.5 µM; with LXFL 529 NSCLC, 42 µM.

Consider `CC(C)(C)c1nc2c(o1)C(=O)c1ccccc1C2=O`, for which the TGI in the experiment with XF 498 CNS amounted to 7.15 µM; in the experiment with DMS 273 small cell lung, 12 µM; in the experiment on KM20L2 colon, 48.2 µM; with RXF-631 renal, 14.9 µM; in the experiment with LXFL 529 NSCLC, 18.1 µM.

Regarding `COc1cccc(NC(=S)Nn2c(C)nc3ccccc3c2=O)c1`, the TGI with DMS 273 small cell lung and with LXFL 529 NSCLC was more than 100 µM throughout.

Regarding `COc1ccc(C(O)/C(=N\NC(N)=S)c2nc3ccc([N+](=O)[O-])cc3[nH]c2=O)cc1OC` (centres undefined), the TGI in the experiment on XF 498 CNS, in the experiment on DMS 273 small cell lung, in the experiment with KM20L2 colon, in the experiment with RXF-631 renal and with LXFL 529 NSCLC was more than 100 µM throughout.

Consider `COc1ccc(C2C3C(=O)C=CC(=O)C3[C@@H]2C)cc1OC` (some centres undefined), for which the TGI in the experiment with XF 498 CNS, in the experiment with DMS 273 small cell lung, in the experiment with KM20L2 colon, in the experiment on RXF-631 renal and in the experiment with LXFL 529 NSCLC was more than 100 µM each time.

Consider `CC1=C2C(=O)[C@H]3[C@@H](CC=C4C[C@@H](O)CC[C@@]43C)[C@@H]2CC[C@]12O[C@@H]1C[C@H](C)CN[C@H]1[C@H]2C`, for which the TGI was 48.5 µM in the experiment on DMS 273 small cell lung, 93.2 µM in the experiment on KM20L2 colon, 50 µM in the experiment on RXF-631 renal and 33.7 µM in the experiment on LXFL 529 NSCLC.

Consider `Clc1ccc(SCCSCCCCCCCCCCSCCSc2ccc(Cl)cc2)cc1`, for which the TGI with DMS 273 small cell lung, in the experiment on KM20L2 colon and in the experiment with RXF-631 renal was more than 100 µM throughout.

For the compound `CSC(C1c2ccccc2N(C)C2=NC(=O)N(C)C(=O)C21Cl)S(=O)(=O)c1ccc(C)cc1` (centres undefined), the TGI is more than 100 µM in the experiment on XF 498 CNS; 75 µM in the experiment on DMS 273 small cell lung; more than 100 µM with KM20L2 colon; more than 100 µM in the experiment with RXF-631 renal; 57.7 µM in the experiment with LXFL 529 NSCLC.
